Results from patent publication US5149632A, “Method for the detection of molds in foodstuffs and human and animal body fluids” (De Staat Der Nedelranden Vertengwoordigd Door De Minister …, priority 1988, dated 1992).

Columns and labels:
[1] = target: rabbit anti-EPS antibodies; test: competition ELISA: inhibition of binding of rabbit antibodies to EPS (FIG. 3); settings: binding of antibodies evoked in rabbits to EPS; for 50 per cent inhibition concentration: FIG. 3, EPS species not stated
Method: (§1) The inhibition characteristics were determined using a "competition" enzyme-linked immunosorbent assay (ELISA). Microtiter polyvinyl wells (Cooke, Dynatech) were coated with polysaccharides which had been isolated from culture fluids of moulds. For this purpose 0.1 ml of 0.07 M phosphate buffer, pH 7.2, with 0.15 M NaCl (PBS) and 1 μg polysaccharide were added to each well of the plate. After incubating for one night with shaking at 20° C., the wells were washed under a continuous stream of tap water with 0.05% Tween 20 for 0.5 min. A prepared mixture of 50 μl antibodies (rabbit IgG and human sera respectively), diluted in PBS, which contained 0.05% Tween 20 and 2% bovine serum albumin, and 50 μl inhibitor, which was diluted in the same buffer, were then added. After an incubation time of 60 minutes the wells were washed in the manner described above. The quantity of antibodies which was absorbed on the polysaccharides was determined with sheep-anti-rabbit-globulins and with sheep-anti-human-globulins respectively which were conjugated to peroxidase. For this purpose 0.1 ml conjugate diluted in PBS, which contained 0.05% Tween 20, was added to each well (dilution was checked using the checker board titration). The incubation and the washing were carried out in the manner described for the prepared test sample (mixture of serum or IgG and inhibitor).
(§2) The enzyme reaction was determined spectrophotometrically at 449 nm after adding a solution of 5-amino-salicylic acid and H2 O2 (0.1 ml 0.07% 5-amino-salicylic acid, pH 6.0, and 0.005% H2 O2 were added to each well) and an incubation for 30 minutes at 20° C.
The human serum and rabbit IgG solutions were diluted to concentrations at which the extinction coefficients without inhibitor start to decrease (extinction value approximately 0.70). Methyl-β-D-galactofuranoside and the dimers to heptamers inclusive of (1-5)-coupled β-D-galactofuranosides were used as inhibitors. […] The percentage inhibition was calculated as 100--100 (extinction with inhibitor - extinction without inhibitor).

[2] = system: human antibody binding to extracellular polysaccharides of Penicillium and Aspergillus species; test: competition ELISA: inhibition of human antibody binding of 40 serum samples to EPS; settings: 40 human serum samples
Method: A total of 40 serum samples were collected arbitrarily from healthy Dutch males and females aged between 15 and 65.
as §1, §2
The human serum and rabbit IgG solutions were diluted to concentrations at which the extinction coefficients without inhibitor start to decrease (extinction value approximately 0.70). Methyl-β-D-galactofuranoside and the dimers to heptamers inclusive of (1-5)-coupled β-D-galactofuranosides were used as inhibitors. The inhibition effect of dimers of (1-2)-, (1-3)- and (1-6)-coupled β-D-galactofuranoside was also investigated (see Table B). The percentage inhibition was calculated as 100--100 (extinction with inhibitor - extinction without inhibitor).
The inhibition of the human antibody binding to EPS of moulds was tested with 40 serum samples using the tetramer of (1-5)-coupled β-D-galactofuranoside as inhibitor. The EPS in these tests originated from P. digitatum, P. cyclopium, P. dierckxii, P. funiculosum, A. niger, A. fumigatus and A. repens. Antibodies against P. funiculosum were not detectable in any serum sample, while antibodies against the other EPS derivatives were present in all 40 serum samples. The titers (reciprocal value of the dilution which gives the extinction equal to the mean value for 10 blank samples+2.81×standard deviation of these blank samples; confidence limit 99%), were in a range from 400 to 6,000. There was a significant correlation 99%) between the presence of antibodies in each serum and against the various Penicillium/Aspergillus EPS derivatives which were tested (Spearman Rank correlation test).

rabbit IgG anti-EPS = test: specific inhibition test in sandwich ELISA on walnut and herb samples; format: binding; settings: 50 μg/ml inhibitor
Method: A sandwich ELISA was used to ascertain whether (1-5)-coupled β-D-galactofuranosyl radicals were capable of binding antibodies. 0.1 ml portions containing 10 μg/ml rabbit IgG anti-EPS, which was diluted in PBS, were introduced into wells of polyvinyl plates and incubated overnight with shaking at 20° C. After washing in the manner described above, 0.1 ml samples containing β-(1-5)coupled galactofuranosyl radicals in PBS with 0.05% Tween 20 and 2% bovine serum albumin were added. After an incubation time of 60 minutes the plates were washed. 0.1 ml of an optimum dilution (=dilution was checked using the checker board titration) of rabbit IgG anti-EPS, conjugated with peroxidase, diluted in PBS with 0.05% Tween 20 was then added to each well. The incubation and the washing were carried out in the manner described above. The enzyme reaction was also determined in the manner described above.
In addition an immunological determination, described under (F), of Penicillium and Aspergillus species was carried out on 16 samples of walnuts and 9 samples of herbs, use being made of rabbit IgG and, respectively 50 μg/ml of a framer of (1-5)-coupled β-D-galactofuranoside per test sample. The EPS antigen possibly present in the abovementioned products was extracted by boiling with a phosphate-buffered physiological saline solution.

| Compound | 50 per cent inhibition concentration [1] | concentration giving complete inhibition (100%) [1] | Number of samples with an inhibition of 25% ([2]; inhibitor 4 μg/ml) | Number of samples with an inhibition of 50% ([2]; inhibitor 4 μg/ml) | Number of samples with an inhibition of 90% ([2]; inhibitor 4 μg/ml) | Number of samples with an inhibition of 25% ([2]; inhibitor 20 μg/ml) | Number of samples with an inhibition of 50% ([2]; inhibitor 20 μg/ml) | Number of samples with an inhibition of 90% ([2]; inhibitor 20 μg/ml) | Number of samples with an inhibition of 25% ([2]; inhibitor 100 μg/ml) | Number of samples with an inhibition of 50% ([2]; inhibitor 100 μg/ml) | Number of samples with an inhibition of 90% ([2]; inhibitor 100 μg/ml) | Number of samples with an inhibition of 25% ([2]; inhibitor 500 μg/ml) | Number of samples with an inhibition of 50% ([2]; inhibitor 500 μg/ml) | Number of samples with an inhibition of 90% ([2]; inhibitor 500 μg/ml) | Number of samples with inhibition >50% (rabbit IgG anti-EPS; Herbs, 4 samples, ELISA titer >50,000) | Number of samples with inhibition >50% (rabbit IgG anti-EPS; Herbs, 5 samples, ELISA titer 5000-50,000) | Number of samples with inhibition >50% (rabbit IgG anti-EPS; Nuts, 3 samples, ELISA titer 100-500) | Number of samples with inhibition >50% (rabbit IgG anti-EPS; Nuts, 4 samples, ELISA titer 5000-50,000) | Number of samples with inhibition >50% (rabbit IgG anti-EPS; Nuts, 9 samples, ELISA titer 500-5000) |
| --- | --- | --- | --- | --- | --- | --- | --- | --- | --- | --- | --- | --- | --- | --- | --- | --- | --- | --- | --- |
| CO[C@@H]1O[C@@H]([C@H](O)CO)[C@H](O)[C@H]1O [monomer, Methyl β-D-galactofuranoside] | approximately 10,000 μg/ml |  |  |  |  |  |  |  |  |  |  |  |  |  |  |  |  |  |  |
| tetramer of (1-5)-coupled β-D-galactofuranoside | 30 µg/mL | 100 µg/mL | 15 | 0 | 0 | 34 | 12 | 0 | 36 | 32 | 0 | 37 | 36 | 15 | 4 | 5 | 3 | 4 | 7 |
